Molecular target: T1, Purified ERAP1(37-941)-10His (ERAP1) (Homo sapiens, UniProt Q9NZ08)
T1 construct: Purified ERAP1(37-941)-10His (ERAP1); 10His (C)
Test: ERAP1 mediated hydrolysis of an amide substrate measured in a biochemical system (10-mer decapeptide substrate)
Settings: 10-mer substrate, 23° C. for 1 h, excitation 279 nm and emission 355 nm; read-out: IC50 vs Decapeptide WRVYEKC(Dnp)ALK-acid (where Dnp is Dinitrophenyl maleimide) (10-mer)
Summary of the method: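 ERAP1(37-941)-10His preincubated with compound in 25 mM Bis-tris propane, 0.05% HPMC, pH 7.75, then reacted 1 h at 23 °C with 10-mer WRVYEKC(Dnp)ALK (100 μM solution added in equal volume). Fluorescence read at ex 279/em 355 nm; IC50 from 4-parameter fit.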

T1 sequence (Q9NZ08 37-941): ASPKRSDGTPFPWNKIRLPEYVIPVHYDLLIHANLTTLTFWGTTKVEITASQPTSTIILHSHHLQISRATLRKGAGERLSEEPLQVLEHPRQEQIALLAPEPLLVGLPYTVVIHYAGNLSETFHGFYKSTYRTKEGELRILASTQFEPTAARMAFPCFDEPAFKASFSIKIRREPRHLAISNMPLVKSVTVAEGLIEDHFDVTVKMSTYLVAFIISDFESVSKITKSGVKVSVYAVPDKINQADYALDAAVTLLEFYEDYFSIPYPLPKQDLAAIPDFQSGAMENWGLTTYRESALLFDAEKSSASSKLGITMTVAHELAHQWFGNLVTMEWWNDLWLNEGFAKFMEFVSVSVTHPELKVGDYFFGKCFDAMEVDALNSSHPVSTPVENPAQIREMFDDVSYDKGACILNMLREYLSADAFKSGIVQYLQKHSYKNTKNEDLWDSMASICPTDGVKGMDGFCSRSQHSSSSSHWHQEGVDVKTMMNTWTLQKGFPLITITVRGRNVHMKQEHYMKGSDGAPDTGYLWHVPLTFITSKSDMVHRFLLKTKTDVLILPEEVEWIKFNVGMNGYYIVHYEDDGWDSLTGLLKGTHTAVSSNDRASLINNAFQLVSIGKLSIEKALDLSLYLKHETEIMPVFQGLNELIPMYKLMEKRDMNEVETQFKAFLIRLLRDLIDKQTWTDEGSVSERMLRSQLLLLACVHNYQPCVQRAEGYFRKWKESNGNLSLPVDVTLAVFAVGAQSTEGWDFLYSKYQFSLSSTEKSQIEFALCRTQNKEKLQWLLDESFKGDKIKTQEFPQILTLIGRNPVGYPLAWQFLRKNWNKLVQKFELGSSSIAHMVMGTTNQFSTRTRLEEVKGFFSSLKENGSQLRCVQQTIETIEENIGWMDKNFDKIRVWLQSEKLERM

Compound | IC50
CCc1ccc(C(=O)O)cc1S(=O)(=O)Nc1cc(C(F)(F)F)ccc1-c1ccc(F)s1 [Example 67, 4-ethyl-3-(N-(2-(5-fluorothiophen-2-yl)-5-(trifluoromethyl)phenyl)sulfamoyl)benzoic acid] | < 500 nM
CCc1ccc(C(=O)O)cc1S(=O)(=O)Nc1cc(C(F)(F)F)ccc1-c1ncccc1F [Example 66, 4-ethyl-3-(N-(2-(3-fluoropyridin-2-yl)-5-(trifluoromethyl)phenyl)sulfamoyl)benzoic acid] | < 500 nM
CCc1ccc(C(=O)O)cc1S(=O)(=O)Nc1cc(C(F)(F)F)ccc1-n1cccc1 [Example 36, 3-(N-(2-(pyrrol-1-yl)-5-(trifluoromethyl)phenyl)sulfamoyl)-4-ethylbenzoic acid] | < 500 nM
CCc1ccc(C(=O)O)cc1S(=O)(=O)Nc1cc(C(F)(F)F)ccc1-n1cncn1 [Example 29, 3-(N-(2-(1,2,4-triazol-1-yl)-5-(trifluoromethyl)phenyl)sulfamoyl)-4-ethylbenzoic acid] | < 5000 nM

Now from value to compound:

IC50 | Compound
< 500 nM | Cc1ccc(-c2ccc(C#N)cc2NS(=O)(=O)c2cc(C(=O)O)ccc2C2CC2)s1 [Example 95, 3-(N-(5-cyano-2-(5-methylthiophen-2-yl)phenyl)sulfamoyl)-4-cyclopropylbenzoic acid]
< 500 nM | Cc1sncc1-c1ccc(-c2cccnc2)c(NS(=O)(=O)c2cc(C(=O)O)ccc2C2CC2)c1 [Example 138, 4-cyclopropyl-3-(N-(5-(5-methylisothiazol-4-yl)-2-(pyridin-3-yl)phenyl)sulfamoyl)benzoic acid]
< 500 nM | CCc1ccc(C(=O)O)cc1S(=O)(=O)Nc1cc(C(F)(F)F)ccc1-c1ncccn1 [Example 68, 4-ethyl-3-(N-(2-(pyrimidin-2-yl)-5-(trifluoromethyl)phenyl)sulfamoyl)benzoic acid]
< 500 nM | Cc1sncc1-c1ccc(-c2ccccc2)c(NS(=O)(=O)c2cc(C(=O)O)ccc2C2CC2)c1 [Example 148, 4-cyclopropyl-3-(N-(4-(5-methylisothiazol-4-yl)-[1,1′-biphenyl]-2-yl)sulfamoyl)benzoic acid]
< 500 nM | O=C(O)c1ccc(C2CC2)c(S(=O)(=O)Nc2cc(-n3cnnn3)c(F)cc2-c2ccccn2)c1 [Example 190, 4-cyclopropyl-3-(N-(4-fluoro-2-(pyridin-2-yl)-5-(tetrazol-1-yl)phenyl)sulfamoyl)benzoic acid]

Reference: patent US12023333B2, “Phenyl-sulfamoyl.benzoyc acids as ERAP1 modulators” (GREY WOLF THERAPEUTICS LIMITED, priority 2019, dated 2024)
